According to ChEMBL document CHEMBL1777728, “Amino-caprolactam γ-secretase inhibitors showing potential for the treatment of Alzheimer's disease” (Bioorg Med Chem Lett, 2011):

Key:
[1] = Inhibition of gamma-secretase-mediated APP cleavage assessed as amyloid beta40 level after 2 hrs by ELISA
[2] = Inhibition of gamma-secretase-mediated notch cleavage after 2 hrs by ELISA
[3] = Selectivity ratio of IC50 for gamma-secretase-mediated notch cleavage to IC50 gamma-secretase-mediated APP cleavage
MDCK = assay: Efflux ratio of permeability from basolateral to apical over apical to basolateral side in human MDR1 transfected MDCK cells at 5 uM after 120 mins by LC-MS/MS analysis; format: ADME, cell-based, Canis lupus familiaris; details: dog, 2 h
Mus musculus [4] = assay: Neuroprotective activity in wild type FVB mouse brain assessed as reduction of amyloid beta x-40 level at 100 mg/kg, ip; format: functional; details: route intraperitoneal
Mus musculus [5] = assay: Neuroprotective activity in P-gp KO (MDR1 ab-/-) mouse brain assessed as reduction of amyloid beta x-40 level at 100 mg/kg, ip; format: functional; details: route intraperitoneal

Row | SMILES | IC50 [1] [nM] | IC50 [2] [nM] | Ratio IC50 [3] | Ratio (MDCK) | inhibition in vivo at 100 mg/kg (Mus musculus [4]) [%] | inhibition in vivo at 100 mg/kg (Mus musculus [5]) [%]
1 | O=C1NCCCC[C@H]1N(Cc1cnc2ccccc2c1)S(=O)(=O)c1ccc(Cl)cc1 | 52 | 126 | 2 |  |  | 
2 | CC(C)NC(=O)c1ccc(CN([C@@H]2CCCCNC2=O)S(=O)(=O)c2ccc(Cl)cc2)cc1 | 30 | 66 | 2 |  |  | 
3 | O=C1NCCCC[C@H]1N(Cc1ccc2snnc2c1)S(=O)(=O)c1ccc(Cl)cc1 | 8 | 25 | 3 | 2 | 32 | 60
4 | O=C1NCCCC[C@H]1N(CC1CCc2ccccc2O1)S(=O)(=O)c1ccc(Cl)cc1 (some centres not stated) | 131 | 196 | 1 |  |  | 
5 | COc1ccc(CN([C@@H]2CCCCNC2=O)S(=O)(=O)c2ccc(Cl)cc2)cc1OC | 170 |  |  |  |  | 
6 | Cn1c(CN([C@@H]2CCCCNC2=O)S(=O)(=O)c2ccc(Cl)cc2)cc2ccccc21 | 565 | 2790 | 5 |  |  | 
7 | Cc1ccc(CN([C@@H]2CCCCNC2=O)S(=O)(=O)c2ccc(Cl)cc2)s1 | 81 |  |  |  |  | 
8 | O=C1NCCCC[C@H]1N(Cc1ccc2nsnc2c1)S(=O)(=O)c1ccc(Cl)cc1 | 13 | 39 | 3 | 2 |  | 
9 | COc1cc(CN(C2CCCCNC2=O)S(=O)(=O)c2ccc(Cl)cc2)ccc1OCCc1scnc1C (configuration not stated) | 1700 |  |  |  |  | 
10 | O=C(NC1CC1)c1ccc(CN([C@@H]2CCCCNC2=O)S(=O)(=O)c2ccc(Cl)cc2)cc1 | 31 | 65 | 2 |  |  | 
11 | COC(=O)c1ccc(CN([C@@H]2CCCCNC2=O)S(=O)(=O)c2ccc(Cl)cc2)cc1 | 3 |  |  |  |  | 
12 | O=C(Nc1ccccc1)c1ccc(CN([C@@H]2CCCCNC2=O)S(=O)(=O)c2ccc(Cl)cc2)cc1 | 76 | 91 | 1 |  |  | 
13 | O=C1NCCCC[C@H]1N(Cc1ccc2ncccc2c1)S(=O)(=O)c1ccc(Cl)cc1 | 6 | 4 | 0.6 | 1.8 | 20 | 62
14 | CC(C)(C)CNC(=O)c1ccc(CN([C@@H]2CCCCNC2=O)S(=O)(=O)c2ccc(Cl)cc2)cc1 | 30 | 55 | 2 |  |  | 
15 | O=C1NCCCC[C@H]1N(Cc1cc2ccccc2o1)S(=O)(=O)c1ccc(Cl)cc1 | 12 | 30 | 2 |  |  | 
16 | O=C1NCCCC[C@H]1N(Cc1ccc2c(c1)OCCO2)S(=O)(=O)c1ccc(Cl)cc1 | 9 | 152 | 17 | 2.7 |  | 

Continued by falling IC50 [1], values first:

Row | IC50 [1] [nM] | IC50 [2] [nM] | Ratio IC50 [3] | Ratio (MDCK) | SMILES | inhibition in vivo at 100 mg/kg (Mus musculus [4]) [%] | inhibition in vivo at 100 mg/kg (Mus musculus [5]) [%]
17 | 5360 | 9320 | 2 |  | Cc1cccc(CN([C@@H]2CCCCNC2=O)S(=O)(=O)c2ccc(Cl)cc2)n1 |  | 
18 | 2000 |  |  |  | COc1cc(CN([C@H]2CCCCNC2=O)S(=O)(=O)c2ccc(Cl)cc2)ccc1OCCc1scnc1C |  | 
19 | 1830 | 1830 | 1 |  | O=C1NCCCC[C@H]1N(Cc1nccs1)S(=O)(=O)c1ccc(Cl)cc1 |  | 
20 | 758 | 2120 | 3 |  | O=C1NCCCC[C@H]1N(Cc1csnn1)S(=O)(=O)c1ccc(Cl)cc1 |  | 
21 | 432 | 601 | 1 |  | Cc1ccc(CN([C@@H]2CCCCNC2=O)S(=O)(=O)c2ccc(Cl)cc2)o1 |  | 
22 | 290 | 1050 | 4 |  | O=C1NCCCC[C@H]1N(Cc1cnc2ncccc2c1)S(=O)(=O)c1ccc(Cl)cc1 |  | 
23 | 170 |  |  |  | COc1cc(CN([C@@H]2CCCCNC2=O)S(=O)(=O)c2ccc(Cl)cc2)ccc1OCCc1scnc1C |  | 
24 | 45 | 26 | 0.5 |  | CCCNC(=O)c1ccc(CN([C@@H]2CCCCNC2=O)S(=O)(=O)c2ccc(Cl)cc2)cc1 |  | 
25 | 23 | 14 | 0.6 |  | O=C(NC1CCCC1)c1ccc(CN([C@@H]2CCCCNC2=O)S(=O)(=O)c2ccc(Cl)cc2)cc1 |  | 
26 | 23 | 49 | 2 |  | O=C(NC1CCC1)c1ccc(CN([C@@H]2CCCCNC2=O)S(=O)(=O)c2ccc(Cl)cc2)cc1 |  | 
27 | 15 | 28 | 2 | 1.8 | O=C1NCCCC[C@H]1N(Cc1ccc2nccnc2c1)S(=O)(=O)c1ccc(Cl)cc1 | 26 | 61
28 | 12 |  |  |  | Cn1nnc2cc(CN([C@@H]3CCCCNC3=O)S(=O)(=O)c3ccc(Cl)cc3)ccc21 |  | 
29 | 9 | 16 | 2 |  | O=C(NCc1ccccc1)c1ccc(CN([C@@H]2CCCCNC2=O)S(=O)(=O)c2ccc(Cl)cc2)cc1 |  | 
30 | 7 | 46 | 6 |  | O=C1NCCCC[C@H]1N(Cc1cc2ccccc2s1)S(=O)(=O)c1ccc(Cl)cc1 |  | 
